Results as given in PubChem BioAssay AID248 (DTP/NCI, 2004).
Where “and” joins values, the source holds several entries; their conditions need not be identical. Identical values can stand only once. Toxic doses and inconclusive results are not listed. Cut-off read from the data, not from the text of the source: active = T/C of 150% or more; inactive = T/C below 125%.

Tested on: L1210 leukemia ip in BDF1 mice, survival T/C
Experiment: NCI In Vivo Anticancer Drug Screen. Data for tumor model L1210 Leukemia (intraperitoneal) in B6D2F1 (BDF1) mice
Details: endpoint: mean survival time, higher = longer survival
Summary of the method: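 Survival endpoint. Drug-treated group vs vehicle group, expressed as T divided by C. Tumor passaged by transplantation.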

[1] = dose: 100.0 mg/kg/injection, schedule: Q04DX002 (ip), vehicle: Klucel (hydroxypropylcellulose) (HPC)
[2] = dose: 200.0 mg/kg/injection, schedule: Q04DX002 (ip), vehicle: Klucel (hydroxypropylcellulose) (HPC)
[3] = dose: 100.0 mg/kg/injection, schedule: Q04DX003 (ip), vehicle: Klucel (hydroxypropylcellulose) (HPC)
[4] = dose: 200.0 mg/kg/injection, schedule: Q04DX003 (ip), vehicle: Klucel (hydroxypropylcellulose) (HPC)
[5] = dose: 400.0 mg/kg/injection, schedule: Q04DX003 (ip), vehicle: Klucel (hydroxypropylcellulose) (HPC)
[6] = dose: 100.0 mg/kg/injection, schedule: Q01DX001 (ip), vehicle: carboxymethylcellulose (CMC)
[7] = dose: 200.0 mg/kg/injection, schedule: Q01DX001 (ip), vehicle: carboxymethylcellulose (CMC)
[8] = dose: 400.0 mg/kg/injection, schedule: Q01DX001 (ip), vehicle: carboxymethylcellulose (CMC)

Measured: T/C

CCC1/C=C/C=C/CC(C)C(O)C(C)(O)C(=O)C(C)C(O)C(C)C(=O)C(C)C(O)C(C)/C=C/C(=O)OC2C(C)C(CC1)OC1(OC(CC(C)O)C(C)CC1=O)C2C (configuration not stated) (tested in a mixture with another compound)
inactive: dose: 0.08 mg/kg/injection, schedule: Q01DX009 (ip), vehicle: saline 102 % of control | dose: 0.16 mg/kg/injection, schedule: Q01DX009 (ip), vehicle: saline 103 % of control | dose: 0.16 mg/kg/injection, schedule: Q04DX003 (ip), vehicle: saline 117 % of control | dose: 0.31 mg/kg/injection, schedule: Q01DX009 (ip), vehicle: saline 102 % of control | dose: 0.32 mg/kg/injection, schedule: Q01DX001 (ip), vehicle: saline 118 % of control | dose: 0.32 mg/kg/injection, schedule: Q01DX009 (ip), vehicle: saline 113 % of control | dose: 0.32 mg/kg/injection, schedule: Q04DX003 (ip), vehicle: saline 117 % of control | dose: 0.44 mg/kg/injection, schedule: Q01DX Z (ip), vehicle: other 114 % of control | dose: 0.44 mg/kg/injection, schedule: Q01DX Z (ip), vehicle: saline 100 % of control | dose: 0.47 mg/kg/injection, schedule: Q01DX009 (ip), vehicle: saline with Tween-80 120 % of control | dose: 0.47 mg/kg/injection, schedule: Q01DX009 (ip), vehicle: saline 101 % of control | dose: 0.63 mg/kg/injection, schedule: Q01DX009 (ip), vehicle: saline 104 % of control | dose: 0.66 mg/kg/injection, schedule: Q01DX Z (ip), vehicle: other 122 % of control | dose: 0.66 mg/kg/injection, schedule: Q01DX Z (ip), vehicle: saline 96 % of control | dose: 0.7 mg/kg/injection, schedule: Q01DX009 (ip), vehicle: saline 102 % of control | dose: 0.8 mg/kg/injection, schedule: Q01DX Z (ip), vehicle: methylcellulose (MC) 110 % of control | dose: 1.0 mg/kg/injection, schedule: Q01DX Z (ip), vehicle: saline 109 % of control and 116 % of control | dose: 1.2 mg/kg/injection, schedule: Q01DX Z (ip), vehicle: methylcellulose (MC) 106 % of control | dose: 1.25 mg/kg/injection, schedule: Q01DX009 (ip), vehicle: saline 102 % of control | dose: 1.5 mg/kg/injection, schedule: Q01DX Z (ip), vehicle: other 115 % of control | dose: 1.5 mg/kg/injection, schedule: Q01DX Z (ip), vehicle: saline 102 % of control and 118 % of control | dose: 1.8 mg/kg/injection, schedule: Q01DX Z (ip), vehicle: methylcellulose (MC) 106 % of control | dose: 2.5 mg/kg/injection, schedule: Q01DX009 (ip), vehicle: saline 96 % of control | dose: 2.6 mg/kg/injection, schedule: Q01DX001 (ip), vehicle: saline 112 % of control | dose: 2.7 mg/kg/injection, schedule: Q01DX Z (ip), vehicle: methylcellulose (MC) 107 % of control | dose: 4.0 mg/kg/injection, schedule: Q01DX001 (ip), vehicle: saline 117 % of control | dose: 4.0 mg/kg/injection, schedule: Q01DX Z (ip), vehicle: methylcellulose (MC) 102 % of control | dose: 5.0 mg/kg/injection, schedule: Q01DX009 (ip), vehicle: saline 110 % of control | dose: 6.0 mg/kg/injection, schedule: Q01DX001 (ip), vehicle: saline 123 % of control | dose: 8.0 mg/kg/injection, schedule: Q01DX Z (ip), vehicle: methylcellulose (MC) 92 % of control | dose: 10.0 mg/kg/injection, schedule: Q01DX009 (ip), vehicle: saline 124 % of control

COC(=O)c1ccc(C(=O)OC)nc1
inactive: dose: 50.0 mg/kg/injection, schedule: Q04DX002 (ip), vehicle: Klucel (hydroxypropylcellulose) (HPC) 106 % of control | [1] 95 % of control | [2] 103 % of control

c1ccc2nc(-c3cc4ccccc4s3)ccc2c1
inactive: dose: 100.0 mg/kg/injection, schedule: Q01DX009 (ip), vehicle: saline sonified 96 % of control | [3] 97 % of control | dose: 200.0 mg/kg/injection, schedule: Q01DX009 (ip), vehicle: saline sonified 100 % of control | [4] 95 % of control | dose: 400.0 mg/kg/injection, schedule: Q01DX009 (ip), vehicle: saline sonified 103 % of control | [5] 101 % of control

Fc1cc(N(CCCl)CCCl)ccc1C1N(Cc2ccc(N(CCCl)CCCl)cc2Cl)CCCN1Cc1ccc(N(CCCl)CCCl)cc1Cl
inactive: dose: 50.0 mg/kg/injection, schedule: Q01DX001 (ip), vehicle: carboxymethylcellulose (CMC) 96 % of control | [6] 105 % of control | [7] 96 % of control | [8] 100 % of control

CCCCCCCCCCCCCCCCOc1ccc2ccccc2c1
inactive: [3] 97 % of control | [4] 102 % of control | [5] 91 % of control

CN(C)c1ccc(C(=O)CCCN2CCC3(CC2)C(=O)NCN3c2ccccc2)cc1
inactive: dose: 100.0 mg/kg/injection, schedule: Q01DX001 (ip), vehicle: Klucel (hydroxypropylcellulose) (HPC) 100 % of control | dose: 200.0 mg/kg/injection, schedule: Q01DX001 (ip), vehicle: Klucel (hydroxypropylcellulose) (HPC) 94 % of control | dose: 400.0 mg/kg/injection, schedule: Q01DX001 (ip), vehicle: Klucel (hydroxypropylcellulose) (HPC) 100 % of control

C=CCNC(=O)Oc1cccc(NC(=O)N(C)C)c1
inactive: dose: 100.0 mg/kg/injection, schedule: Q01DX009 (ip), vehicle: saline with Tween-80 107 % of control | dose: 200.0 mg/kg/injection, schedule: Q01DX009 (ip), vehicle: saline with Tween-80 109 % of control | dose: 400.0 mg/kg/injection, schedule: Q01DX009 (ip), vehicle: saline with Tween-80 120 % of control

CCS(=O)(=O)c1ccc(NC(=O)OC(c2ccccc2)c2ccccc2)cc1
inactive: [6] 94 % of control | [7] 91 % of control | [8] 96 % of control

C=C(C)Cn1cnc2c1c(=O)n(C)c(=O)n2C
inactive: dose: 100.0 mg/kg/injection, schedule: Q04DX003 (ip), vehicle: saline 103 % of control | dose: 200.0 mg/kg/injection, schedule: Q04DX003 (ip), vehicle: saline 98 % of control | dose: 400.0 mg/kg/injection, schedule: Q04DX003 (ip), vehicle: saline 89 % of control

CCCCC(=O)N1C(C)CCCC1C (configuration not stated)
inactive: dose: 25.0 mg/kg/injection, schedule: Q04DX002 (ip), vehicle: saline 88 % of control | dose: 50.0 mg/kg/injection, schedule: Q04DX002 (ip), vehicle: saline 91 % of control | dose: 100.0 mg/kg/injection, schedule: Q04DX002 (ip), vehicle: saline 94 % of control | dose: 400.0 mg/kg/injection, schedule: Q04DX002 (ip), vehicle: saline 96 % of control

CC(C)(O)C(=O)N/N=C/c1ccc(Cl)cc1Cl
inactive: dose: 25.0 mg/kg/injection, schedule: Q01DX009 (ip), vehicle: saline with Tween-80 102 % of control

OCC(O)C(O)C(O)C(O)c1nc2ccccc2[nH]1 (configuration not stated)
inactive: [1] 105 % of control | [2] 87 % of control | dose: 400.0 mg/kg/injection, schedule: Q04DX002 (ip), vehicle: Klucel (hydroxypropylcellulose) (HPC) 97 % of control

O=C1CCC(Cc2cccc3ccccc23)N1 (configuration not stated)
inactive: dose: 100.0 mg/kg/injection, schedule: Q04DX002 (ip), vehicle: saline with Tween-80 97 % of control | dose: 200.0 mg/kg/injection, schedule: Q04DX002 (ip), vehicle: saline with Tween-80 91 % of control | dose: 400.0 mg/kg/injection, schedule: Q04DX002 (ip), vehicle: saline with Tween-80 94 % of control

CCCCOB1OC(C)CC(C)(C)O1 (configuration not stated)
inactive: dose: 100.0 mg/kg/injection, schedule: Q01DX001 (ip), vehicle: saline 106 % of control | dose: 200.0 mg/kg/injection, schedule: Q01DX001 (ip), vehicle: saline 97 % of control | dose: 400.0 mg/kg/injection, schedule: Q01DX001 (ip), vehicle: saline 99 % of control

CCCCCCCSCCSCCSCCCCCCC
inactive: [3] 101 % of control | [4] 95 % of control | [5] 95 % of control

O=[N+]([O-])c1ccc(N=C(Nc2ccc([N+](=O)[O-])cc2)c2ccccc2)cc1
inactive: dose: 100.0 mg/kg/injection, schedule: Q01DX009 (ip), vehicle: other 92 % of control | dose: 100.0 mg/kg/injection, schedule: Q04DX003 (ip), vehicle: other 96 % of control | dose: 200.0 mg/kg/injection, schedule: Q01DX009 (ip), vehicle: other 101 % of control | dose: 200.0 mg/kg/injection, schedule: Q04DX003 (ip), vehicle: other 102 % of control | dose: 400.0 mg/kg/injection, schedule: Q01DX009 (ip), vehicle: other 97 % of control | dose: 400.0 mg/kg/injection, schedule: Q04DX003 (ip), vehicle: other 91 % of control
